Laboratory results taken from publication PMC4417528, “Loureirin B, an essential component of Sanguis Draxonis, inhibits Kv1.3 channel and suppresses cytokine release from Jurkat T cells” (Cell & Bioscience, 2014).

Experiments:
Format in all cases: cell-based
mKv1.3-H404T = biological target: T1, mKv1.3-H404T (Mus musculus, UniProt P16390, H404T); assay: whole-cell patch clamp, HEK293T cells, steady-state current at +[…] mV
T1 construct: gene Kcna3; mKv1.3 mutant expressed in HEK293T cells

Kv1.3 = biological target: T2, Kv1.3 (Homo sapiens, UniProt P22001); assay: whole-cell patch clamp, Jurkat T cells
T2 construct: gene KCNA3; endogenous Kv1.3 in Jurkat T cells

mKv1.3-A418C = biological target: T3, mKv1.3-A418C (Mus musculus, UniProt P16390, A418C); assay: whole-cell patch clamp, HEK293T cells, steady-state current at +[…] mV
T3 construct: gene Kcna3; mKv1.3 mutant expressed in HEK293T cells

mKv1.3 = biological target: T4, mKv1.3 (Mus musculus, UniProt P16390); assay: as above
T4 construct: gene Kcna3; wild-type mKv1.3 expressed in HEK293T cells
T4 sequence (P16390 whole entry): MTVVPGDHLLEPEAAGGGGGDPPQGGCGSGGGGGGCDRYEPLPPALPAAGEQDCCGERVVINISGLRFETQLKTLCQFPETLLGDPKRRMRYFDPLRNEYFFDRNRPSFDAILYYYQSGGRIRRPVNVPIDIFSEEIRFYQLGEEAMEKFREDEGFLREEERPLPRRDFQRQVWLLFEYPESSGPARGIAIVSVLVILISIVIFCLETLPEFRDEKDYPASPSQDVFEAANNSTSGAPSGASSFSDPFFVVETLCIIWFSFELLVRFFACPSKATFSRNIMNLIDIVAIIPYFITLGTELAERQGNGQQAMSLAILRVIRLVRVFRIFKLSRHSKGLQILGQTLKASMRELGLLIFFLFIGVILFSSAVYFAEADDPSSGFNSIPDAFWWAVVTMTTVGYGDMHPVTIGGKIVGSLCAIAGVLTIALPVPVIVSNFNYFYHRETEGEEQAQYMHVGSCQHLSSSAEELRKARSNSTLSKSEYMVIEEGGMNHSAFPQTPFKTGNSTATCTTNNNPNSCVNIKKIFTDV

T3 sequence (P16390 whole entry A418C): as the sequence (P16390 whole entry) above, with A418C counted along it
T1 sequence (P16390 whole entry H404T): as the sequence (P16390 whole entry) above, with H404T counted along it
T2 sequence (P22001 whole entry): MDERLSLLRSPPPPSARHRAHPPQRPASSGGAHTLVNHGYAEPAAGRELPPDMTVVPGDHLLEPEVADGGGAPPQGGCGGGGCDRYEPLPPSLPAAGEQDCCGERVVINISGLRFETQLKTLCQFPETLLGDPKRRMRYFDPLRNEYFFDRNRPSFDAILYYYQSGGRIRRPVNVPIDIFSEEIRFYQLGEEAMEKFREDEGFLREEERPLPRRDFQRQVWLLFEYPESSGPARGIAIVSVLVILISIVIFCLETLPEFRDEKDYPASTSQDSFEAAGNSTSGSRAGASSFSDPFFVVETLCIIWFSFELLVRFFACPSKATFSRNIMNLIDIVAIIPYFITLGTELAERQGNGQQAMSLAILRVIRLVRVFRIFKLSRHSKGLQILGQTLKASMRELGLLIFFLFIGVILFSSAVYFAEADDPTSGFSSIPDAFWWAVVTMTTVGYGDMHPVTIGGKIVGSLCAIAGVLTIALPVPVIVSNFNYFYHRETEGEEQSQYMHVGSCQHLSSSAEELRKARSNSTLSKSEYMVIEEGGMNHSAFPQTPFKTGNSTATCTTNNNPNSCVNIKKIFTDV

- IC50 (mKv1.3-H404T): 116 ± 19.8 µM
- IC50 (Kv1.3): 19.9 ± 1.8 µM
- IC50 (mKv1.3-A418C): 29.1 ± 7.1 µM
- IC50 (mKv1.3): 7.2 ± 0.6 µM
Structure (SMILES): COc1cc(OC)c(CCC(=O)c2ccc(O)cc2)c(OC)c1 [LrB, loureirin B]
